Measurements as given in patent publication US8058256B2, “Polymeric carrier for delivery of small interfering RNA” (University of Utah Research Foundation, priority 2006, dated 2011).

Test system: VEGF expression in CT-26 colon adenocarcinoma cells
Test: VEGF silencing in vitro, mouse VEGF ELISA of cell supernatants
Type: cell-based
Conditions: bPEI carrier; N/P ratio of 10; CT-26 cells; 0.7 μg siRNA/well
Method: To evaluate the biological significance of these systems, the inhibitory activity of siRNA against the expression of VEGF in CT-26 colon adenocarcinoma cells was investigated.
CT-26 cells were seeded in 24-well tissue culture plates at 8×10^4 cells per well in 10% FBS containing RPMI 1640 medium. Cells achieved 80% confluency within 24 h, after which they were transfected with cationic substance/siRNA complexes prepared at N/P ratios ranging from 5 to 40. The total amount of siRNA loaded was maintained constant at 0.7 μg/well. The transfection was carried out in the absence of serum. The cells were allowed to incubate at 37° C. in the presence of complexes for 4 h in a CO2 incubator, followed by replacement of 1 ml of RPMI 1640 containing 10% FBS. Thereafter, the cells were incubated at 37° C. for an additional 24 h. […]
The amount of mouse VEGF produced in medium was determined using a mouse VEGF ELISA kit (R&D Systems Inc., Minneapolis, Minn.) according to the recommendation of the manufacturer. […] The enzymatic reaction was stopped by adding 100 μl of stop solution to the wells, and absorbance was determined by spectrophotometry at 450 nm. The VEGF concentration in the cell supernatant samples was calculated based on the standard curve.
The inhibitory effect was evaluated from the relative silencing of the VEGF assayed by ELISA.

“scVEGF: scrambled VEGF siRNA, SEQ ID NO:3 and SEQ ID NO:4; in b74 tested as complex with bPEI (chain 1 GAUAGCAAUGACGAAUGCGUATT; chain 2 UACGCAUUCGUCAUUGCUAUCTT; chemistry not given here)” was tested, and the “silencing of VEGF expression (ELISA)” value was “no effect”.
